The source of these data is PMC3088499 (Journal of medicinal chemistry, 2008).

The target of assay [1] is T1, 5-HT2A receptor F340^6.52L mutant (Rattus norvegicus, UniProt P14842, F340L). Put plainly: [3H]ketanserin binding at F340L mutant 5-HT2A receptor. Particulars: F340L vs wild type 5-HT2A.
Another assay has as its target NET (Homo sapiens, UniProt P23975). Put plainly: [3H]nisoxitine binding, NET.
The target of the next assay is 5-HT2A sites. As to conditions: read-out: Ki, 5-HT2A receptor affinity; [3H]Ketanserin-labeled 5-HT2A sites; ref [13]; cited from earlier work.
Assay [2] has as its target T1, 5-HT2A receptor F340^6.52L mutant. Particulars: F340L vs wild type 5-HT2A, fold decrease; ref [41]; cited from earlier work.
A further assay relates to 5-HT2A F125^2.55L mutant. As to conditions: cited from earlier work.
Another assay concerns 5-HT2A F125^2.55S mutant. As to conditions: ref [107]; cited from earlier work.
The next assay deals with 5-HT2A M132^2.62L mutant. Particulars: ref [107]; cited from earlier work.
A further assay has as its system 5-HT2A T134^2.64A mutant. As to conditions: ref [107]; cited from earlier work.
The next assay deals with 5-HT2A S159^3.36A mutant. Particulars: ref [45]; cited from earlier work.
A further assay deals with 5-HT2A S159^3.36C mutant. As to conditions: ref [45]; cited from earlier work.
A further assay has as its system 5-HT2A D172^3.49N mutant. Particulars: ref [105]; cited from earlier work.
In a further assay the test system is 5-HT2A W200^4.50A mutant. Particulars: ref [44]; cited from earlier work.
Another assay has as its system 5-HT2A F340^6.52L mutant. As to conditions: cited from earlier work.
For the next assay, the system named is 5-HT2A W367^7.40L mutant. As to conditions: ref [44]; cited from earlier work.

“Also recorded” adds a separate entry of the source. Structures can show the parent of a compound that is named as a salt. Where two headings read alike, the source gives them in different places.

T1 sequence (P14842 whole entry F340L): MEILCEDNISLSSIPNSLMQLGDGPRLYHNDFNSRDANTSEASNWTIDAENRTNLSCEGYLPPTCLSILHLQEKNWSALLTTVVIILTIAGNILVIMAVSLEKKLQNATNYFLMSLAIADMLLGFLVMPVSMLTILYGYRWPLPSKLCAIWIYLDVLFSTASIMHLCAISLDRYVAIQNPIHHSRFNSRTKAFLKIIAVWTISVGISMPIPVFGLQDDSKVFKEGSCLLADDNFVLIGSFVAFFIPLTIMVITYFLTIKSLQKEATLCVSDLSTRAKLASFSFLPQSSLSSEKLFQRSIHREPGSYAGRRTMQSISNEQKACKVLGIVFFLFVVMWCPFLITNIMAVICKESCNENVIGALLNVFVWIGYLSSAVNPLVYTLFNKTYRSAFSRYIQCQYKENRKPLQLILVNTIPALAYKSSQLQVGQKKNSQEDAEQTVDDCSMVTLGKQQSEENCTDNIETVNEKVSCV
Chain of NET (P23975 whole entry): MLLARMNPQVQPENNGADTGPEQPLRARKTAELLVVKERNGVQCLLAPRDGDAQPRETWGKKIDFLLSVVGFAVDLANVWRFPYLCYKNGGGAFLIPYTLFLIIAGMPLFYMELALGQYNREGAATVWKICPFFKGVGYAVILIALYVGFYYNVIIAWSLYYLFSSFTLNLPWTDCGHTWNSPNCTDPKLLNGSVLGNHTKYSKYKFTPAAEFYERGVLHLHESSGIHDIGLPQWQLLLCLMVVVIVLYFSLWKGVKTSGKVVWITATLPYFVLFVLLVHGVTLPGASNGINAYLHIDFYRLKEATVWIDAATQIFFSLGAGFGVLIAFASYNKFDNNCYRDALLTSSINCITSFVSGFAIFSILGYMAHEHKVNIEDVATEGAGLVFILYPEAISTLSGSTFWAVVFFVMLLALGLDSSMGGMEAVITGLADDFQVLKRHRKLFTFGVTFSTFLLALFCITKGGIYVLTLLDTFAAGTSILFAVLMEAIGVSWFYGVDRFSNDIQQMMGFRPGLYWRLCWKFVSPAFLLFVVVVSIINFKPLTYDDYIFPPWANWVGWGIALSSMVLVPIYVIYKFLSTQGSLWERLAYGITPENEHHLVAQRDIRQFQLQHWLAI

Regarding `NCC1c2ccccc2Cc2ccccc21` [Compound 1a, 9-aminomethyl-9,10-dihydroanthracene], in assay [1], the “decrease in affinity at F340L mutant compared to wild type receptor” value came out at 3 fold.

Regarding `NCC1c2ccccc2Cc2cc(Br)ccc21` (stereo not shown) [Compound 1b, 3-Bromo-9-aminomethyl-9,10-dihydroanthracene hydrochloride], the “decrease in affinity at F340L mutant compared to wild type receptor” value in [1] is recorded as “no change in affinity”.

As for `CCCCCCc1ccc2c(c1)Cc1ccccc1C2CN` (stereo not shown) [Compound 1d, 3-n-Hexyl-9-aminomethyl-9,10-dihydroanthracene fumarate], at NET, the “selectivity for the 5-HT2A receptor over the norepinephrine transporter” value is given as 120 fold.

On to `COc1cc(CC(C)N)c(OC)cc1O` (stereo not shown) [Compound 2g], for which the Ki on 5-HT2A sites was greater than 50 µM.

Turning to `COc1cc(CC(C)N)c(OC)cc1I` (stereo not shown) [DOI, 2,5-dimethoxy-4-iodoamphetamine], the “effect of F340L mutation on affinity” value in assay [2] is given as “approximately 14,000 fold”.

For `O=C(c1ccc(F)cc1)C1CCN(CCn2c(=O)[nH]c3ccccc3c2=O)CC1` [ketanserin], in assay [2], the “effect of F340L mutation on affinity” value is “little effect”. Further, the “Effect on ketanserin binding affinity” value in the assay on 5-HT2A F125^2.55L mutant (ref [44]), in the assay on 5-HT2A F125^2.55L mutant (ref [104]), with 5-HT2A F125^2.55L mutant (ref [106]), with 5-HT2A F125^2.55S mutant, with 5-HT2A M132^2.62L mutant and with 5-HT2A T134^2.64A mutant was “no effect” throughout. In addition, the “Effect on ketanserin binding affinity” value in the assay with 5-HT2A S159^3.36A mutant, with 5-HT2A S159^3.36C mutant, in the assay on 5-HT2A D172^3.49N mutant, in the assay on 5-HT2A W200^4.50A mutant, with 5-HT2A F340^6.52L mutant (ref [104]) and in the assay on 5-HT2A F340^6.52L mutant (ref [107]) was “no effect” in each case. Also, the “Effect on ketanserin binding affinity” value in the assay with 5-HT2A W367^7.40L mutant is given as “abolished; also recorded: no detectable binding”.
